Our source for the EC50 values is patent US20220056043A1, “NITROGEN-CONTAINING FUSED CYCLIC COMPOUND, PREPARATION METHOD THEREFOR AND USE THEREOF” (SICHUAN KELUN-BIOTECH BIOPHARMACEUTICAL CO., LTD., priority 2019, published 2022).

A value given as a limit tells only on which side of the number the result lay.

Usually EC50 stands for the concentration at which the effect is half-maximal. Lower therefore signals greater potency.

The target in one assay is T1, hNLRP3 inflammasome (Homo sapiens, UniProt Q96P20).
T1 construct: endogenous in cells; host or cells: THP-1 cells, PMA-differentiated
The assay can be described thus: Agonistic effect on the expression of IL-1β in THP-1 cells after PMA-induced differentiation (HTRF). It counts as cell-based. The following applies: IL-1β level, PMA-differentiated THP-1 cells, 6 hours. The gist of the method:
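THP-1 cells differentiated with 1 μM PMA for 24 h, then replated at 1×10^5 cells/well in RPMI 1640 with 2% FBS. Compounds added for 6 h at 37 °C, 5% CO2. Supernatant IL-1β measured by HTRF; EC50 from four-parameter variable-slope fit.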
For orientation: In TR-FRET formats the signal depends on donor and acceptor labels being close together.

In a further assay the target is T2, hTLR7 (Homo sapiens, UniProt Q9NYK1).
T2 construct: host or cells: HEK-hTLR7-NF-κB-Luciferase cells
T2 sequence (Q9NYK1 27-1049): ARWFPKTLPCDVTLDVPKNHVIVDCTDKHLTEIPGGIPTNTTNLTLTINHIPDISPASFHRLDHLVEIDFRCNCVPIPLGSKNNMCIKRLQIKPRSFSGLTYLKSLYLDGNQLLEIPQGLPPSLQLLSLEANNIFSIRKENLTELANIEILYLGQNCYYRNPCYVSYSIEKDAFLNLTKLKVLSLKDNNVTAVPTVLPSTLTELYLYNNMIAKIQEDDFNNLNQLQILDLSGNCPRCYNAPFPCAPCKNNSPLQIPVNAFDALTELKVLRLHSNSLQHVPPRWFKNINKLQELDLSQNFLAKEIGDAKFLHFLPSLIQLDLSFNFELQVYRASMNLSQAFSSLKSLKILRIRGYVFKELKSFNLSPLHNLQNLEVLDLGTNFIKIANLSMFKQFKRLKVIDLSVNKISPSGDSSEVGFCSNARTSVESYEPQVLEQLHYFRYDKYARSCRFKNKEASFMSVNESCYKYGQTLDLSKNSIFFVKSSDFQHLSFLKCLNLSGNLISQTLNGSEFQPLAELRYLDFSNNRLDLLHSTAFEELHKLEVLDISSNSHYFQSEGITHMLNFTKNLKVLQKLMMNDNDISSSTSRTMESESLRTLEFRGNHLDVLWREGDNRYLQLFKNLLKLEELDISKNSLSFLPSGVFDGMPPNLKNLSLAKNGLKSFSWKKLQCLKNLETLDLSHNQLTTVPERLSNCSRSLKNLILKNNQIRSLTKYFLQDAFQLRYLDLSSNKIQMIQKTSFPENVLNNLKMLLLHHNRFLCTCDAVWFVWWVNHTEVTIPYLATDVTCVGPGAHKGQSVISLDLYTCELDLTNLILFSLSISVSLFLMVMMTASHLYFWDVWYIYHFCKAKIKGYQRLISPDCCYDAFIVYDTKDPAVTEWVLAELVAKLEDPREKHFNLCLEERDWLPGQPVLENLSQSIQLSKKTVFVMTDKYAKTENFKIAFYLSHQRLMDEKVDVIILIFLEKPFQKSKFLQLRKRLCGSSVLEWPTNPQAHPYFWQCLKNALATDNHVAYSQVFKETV
The assay can be described thus: Agonistic effect on hTLR7, HEK-hTLR7-NF-κB-Luciferase reporter cells. It counts as cell-based. Particulars: 16 hours. From the text: Experimental Example 3: Agonistic Effect of the Compound of the Invention on hTLR7
In this test, the luciferase in HEK-hTLR7-NF-κB-reporter cells was detected to test the activating effect of the compound of the invention on TLR7 signaling pathway, so as to evaluate the specificity of the agonistic effect of the compound on NLRP3 pathway.
Reagents: DMEM (High glucose); FBS (fetal bovine serum) (Gibco); Bright-Glo™ Luciferase detection kit (Promega)
Cells: HEK-hTLR7-NF-κB-Luciferase gene cells (human TLR7 NF-κB-luciferase reporter gene cells) (Nanjing Cobioer)
1) The HEK-hTLR7-NF-κB-Luciferase cells in a logarithmic growth phase were trypsinized and resuspended in the medium to a concentration of 2×10^6 cells/mL. 50 μL/well of the cell resuspension was added to a 96-well plate such that the number of cells in each well was […]. An appropriate amount of 10 mM DMSO solution of the compound to be tested was taken and diluted to a concentration of 2× test concentration with the medium. 50 μL/well was added to the cells in the 96-well plate, and the 96-well plate was incubated in an incubator at 37° C. and 5% CO2 for 16 hours. The medium was DMEM (High glucose) containing 10% FBS.
2) After the cell incubation, 100 μL/well of Bright-Glo™ Luciferase detection reagent was added, and the mixture was incubated at room temperature for 5 minutes. Relative luciferase activity unit (RLU) was read using a microplate reader.
3) The EC50 of effect of the tested compound to stimulate hTLR7 was fitted by the GraphPad software log(agonist) vs. response—Variable slope four-parameter method.

T1 sequence (Q96P20 whole entry): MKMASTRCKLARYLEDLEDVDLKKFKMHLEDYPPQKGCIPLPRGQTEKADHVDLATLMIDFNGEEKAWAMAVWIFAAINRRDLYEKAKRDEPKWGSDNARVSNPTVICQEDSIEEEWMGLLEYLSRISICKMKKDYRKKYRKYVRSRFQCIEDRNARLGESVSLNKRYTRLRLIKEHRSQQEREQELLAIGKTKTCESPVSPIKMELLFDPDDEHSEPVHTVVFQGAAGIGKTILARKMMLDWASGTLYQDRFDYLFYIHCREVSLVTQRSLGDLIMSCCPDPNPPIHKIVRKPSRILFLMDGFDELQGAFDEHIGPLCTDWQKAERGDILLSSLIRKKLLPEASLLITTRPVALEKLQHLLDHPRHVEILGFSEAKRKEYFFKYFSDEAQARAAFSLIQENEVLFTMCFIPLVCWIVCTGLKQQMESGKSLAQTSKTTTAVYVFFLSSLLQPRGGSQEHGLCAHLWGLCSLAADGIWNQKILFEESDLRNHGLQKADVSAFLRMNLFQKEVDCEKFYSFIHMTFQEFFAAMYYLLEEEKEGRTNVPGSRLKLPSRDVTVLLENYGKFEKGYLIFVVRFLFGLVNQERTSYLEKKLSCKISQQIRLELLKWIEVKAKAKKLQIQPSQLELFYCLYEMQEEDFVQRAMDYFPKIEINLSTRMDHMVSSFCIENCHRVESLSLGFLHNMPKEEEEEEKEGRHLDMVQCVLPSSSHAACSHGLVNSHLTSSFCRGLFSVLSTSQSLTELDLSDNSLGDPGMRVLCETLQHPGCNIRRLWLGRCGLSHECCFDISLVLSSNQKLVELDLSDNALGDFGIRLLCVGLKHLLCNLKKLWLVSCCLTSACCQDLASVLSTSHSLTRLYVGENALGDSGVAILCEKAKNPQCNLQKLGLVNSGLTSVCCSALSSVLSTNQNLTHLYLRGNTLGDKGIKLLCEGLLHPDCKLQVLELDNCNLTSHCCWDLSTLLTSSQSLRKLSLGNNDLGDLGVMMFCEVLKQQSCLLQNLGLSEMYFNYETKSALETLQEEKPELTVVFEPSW

Take `CCC(CC)Nc1cc(N)nc2cc(-c3ccn[nH]3)sc12` [Compound 113, N^7-(pent-3-yl)-2-(1H-pyrazol-5-yl)thieno[3,2-b]pyridine-5,7-diamine]: the EC50 was 0.03 µM at hNLRP3 inflammasome and > 100000 nM on hTLR7.
The matching figures for `Nc1cc(NC2CCC(O)CC2)c2sc(-c3ccn[nH]3)cc2n1` (stereo not drawn) [Compound 114, 4-((5-amino-2-(1H-pyrazol-5-yl)thieno[3,2-b]pyridin-7-yl)amino)-1-cyclohexanol]: 0.06 µM and > 100000 nM.
On to `CC(C)(CO)CNc1cc(N)nc2cc(-c3ccn[nH]3)sc12` [Compound 115, 3-((5-amino-2-(1H-pyrazol-5-yl)thieno[3,2-b]pyridin-7-yl)amino)-2,2-dimethyl-1-propanol], for which the figures for the EC50 at hNLRP3 inflammasome and on hTLR7 were 0.04 µM and > 100000 nM, respectively.
The matching figures for `Nc1cc(NCC(F)F)c2sc(-c3ccn[nH]3)cc2n1` [Compound 116, N^7-(2,2-difluoroethyl)-2-(1H-pyrazol-5-yl)thieno[3,2-b]pyridine-5,7-diamine]: 0.03 µM and > 100000 nM.
The corresponding values for `C[C@@H]1CN(CCNc2cc(N)nc3cc(-c4ccn[nH]4)sc23)C[C@H](C)O1` [Compound 117, N^7-(2-((2S,6R)-2,6-dimethylmorpholino)ethyl)-2-(1H-pyrazol-5-yl)thieno[3,2-b]pyridine-5,7-diamine] are 0.27 µM and > 100000 nM.
In the case of `N#CC1(CNc2cc(N)nc3cc(-c4ccn[nH]4)sc23)CC1` [Compound 119], the EC50 is 0.01 µM on hNLRP3 inflammasome and > 100000 nM on hTLR7.
With `Nc1cc(NCC2CCOCC2)c2sc(-c3ccn[nH]3)cc2n1` [Compound 120, 2-(1H-pyrazol-5-yl)-N^7-((tetrahydro-2H-pyran-4-yl)methyl)thieno[3,2-b]pyridine-5,7-diamine], the half-maximal effective concentration (EC50) at hNLRP3 inflammasome was 0.05 µM; at hTLR7 it was > 100000 nM.
In the case of `CC1(CNc2cc(N)nc3cc(-c4ccn[nH]4)sc23)COC1` [Compound 121, N^7-((3-methyloxetan-3-yl)methyl)-2-(1H-pyrazol-5-yl)thieno[3,2-b]pyridine-5,7-diamine], the EC50 on hNLRP3 inflammasome was 0.03 µM; on hTLR7, > 100000 nM.
In the case of `CC(CO)(CO)CNc1cc(N)nc2cc(-c3ccn[nH]3)sc12` [Compound 122], the results for the EC50 at hNLRP3 inflammasome and at hTLR7 were 0.6 µM and > 100000 nM, respectively.
Turning to `Cc1c(-c2cc[nH]n2)sc2c(NCCN3CCOCC3)cc(N)nc12` [Compound 153], the 50% effective concentration (EC50) at hNLRP3 inflammasome is 4.29 µM; on hTLR7, > 100000 nM.
Regarding `Cc1c(-c2cc[nH]n2)sc2c(NCC3CC3)cc(N)nc12` [Compound 156], the half-maximal effective concentration (EC50) on hNLRP3 inflammasome was 5.01 µM; on hTLR7, > 100000 nM.
The corresponding values for `Cc1c(-c2ccn[nH]2)sc2c(NC[C@@H]3CCCO3)cc(N)nc12` [Compound 157] are 3.47 µM and > 100000 nM.
In the case of `Cc1c(-c2cc[nH]n2)sc2c(NCCCO)cc(N)nc12` [Compound 159], the half-maximal effective concentration (EC50) on hNLRP3 inflammasome is 1.29 µM; on hTLR7, > 100000 nM.
With `Nc1cc(N2CCN(C3CCCC3)CC2)c2sc(-c3ccn[nH]3)cc2n1` [Compound 160], the EC50 at hNLRP3 inflammasome is 0.11 µM; at hTLR7, > 100000 nM.
The matching figures for `CN1CCN(c2cc(N)nc3cc(-c4ccn[nH]4)sc23)CC1` [Compound 161]: 0.18 µM and > 100000 nM.
The matching figures for `CC(C)N1CCN(c2cc(N)nc3cc(-c4ccn[nH]4)sc23)CC1` [Compound 162]: 0.01 µM and > 100000 nM.
Turning to `Nc1cc(N2CCN(C3CC3)CC2)c2sc(-c3ccn[nH]3)cc2n1` [Compound 163], the EC50 at hNLRP3 inflammasome was 0.27 µM; on hTLR7, > 100000 nM.
In the case of `CS(=O)(=O)N1CCN(c2cc(N)nc3cc(-c4ccn[nH]4)sc23)CC1` [Compound 164], the concentration giving a half-maximal response (EC50) is 0.006 µM at hNLRP3 inflammasome and > 100000 nM at hTLR7.
The matching figures for `COC1(C)CCN(c2cc(N)nc3cc(-c4ccn[nH]4)sc23)CC1` [Compound 165]: 0.03 µM and > 100000 nM.
As to `Nc1cc(N2CCCC(O)C2)c2sc(-c3ccn[nH]3)cc2n1` (stereo not drawn) [Compound 166], the 50% effective concentration (EC50) on hNLRP3 inflammasome is 0.34 µM; at hTLR7 it was > 100000 nM.
The matching figures for `Nc1cc(N2CCN(C3CCCCC3)CC2)c2sc(-c3ccn[nH]3)cc2n1` [Compound 167]: 0.01 µM and > 100000 nM.
The corresponding values for `C[C@H]1CN(c2cc(N)nc3cc(-c4ccn[nH]4)sc23)C[C@H](C)O1` [Compound 168] are 0.01 µM and > 100000 nM.
Regarding `C[C@@H]1CN(c2cc(N)nc3cc(-c4ccn[nH]4)sc23)C[C@H](C)O1` [Compound 169], the half-maximal effective concentration (EC50) is 0.01 µM on hNLRP3 inflammasome and > 100000 nM on hTLR7.
The corresponding values for `Nc1cc(N2CCOCC2)c2sc(-c3ccn[nH]3)cc2n1` [Compound 170] are 0.02 µM and > 100000 nM.
The corresponding values for `CC1(C)CN(c2cc(N)nc3cc(-c4ccn[nH]4)sc23)CCO1` [Compound 171] are 0.03 µM and > 100000 nM.
On to `Nc1cc(N2CCC(O)CC2)c2sc(-c3ccn[nH]3)cc2n1` [Compound 172], for which the concentration for a half-maximal effect (EC50) on hNLRP3 inflammasome was 0.03 µM; on hTLR7 it was > 100000 nM.
The matching figures for `CC1(C)CCN(c2cc(N)nc3cc(-c4ccn[nH]4)sc23)CC1` [Compound 173]: 0.1 µM and > 100000 nM.
Regarding `Nc1cc(N2CCN(c3ccccc3)CC2)c2sc(-c3ccn[nH]3)cc2n1` [Compound 174], the half-maximal effective concentration (EC50) on hNLRP3 inflammasome was 0.34 µM; at hTLR7, > 100000 nM.
The matching figures for `Nc1cc(N2CCNCC2)c2sc(-c3ccn[nH]3)cc2n1` [Compound 175]: 0.34 µM and > 100000 nM.
In the case of `Nc1cc(N2CC3CC(C2)N3)c2sc(-c3ccn[nH]3)cc2n1` [Compound 176], the EC50 is 0.23 µM on hNLRP3 inflammasome and > 100000 nM at hTLR7.
The corresponding values for `C[C@@H]1COCCN1c1cc(N)nc2cc(-c3ccn[nH]3)sc12` [Compound 177] are 0.03 µM and > 100000 nM.
Regarding `Nc1cc(N2CCN(C=O)CC2)c2sc(-c3ccn[nH]3)cc2n1` [Compound 178], the concentration for a half-maximal effect (EC50) at hNLRP3 inflammasome was 0.17 µM; at hTLR7 it was > 100000 nM.
The corresponding values for `Nc1cc(N2CC3CC(C2)N3C=O)c2sc(-c3ccn[nH]3)cc2n1` [Compound 179] are 0.05 µM and > 100000 nM.
The corresponding values for `COC1CCN(c2cc(N)nc3cc(-c4ccn[nH]4)sc23)C1` (stereo not drawn) [Compound 180] are 0.01 µM and > 100000 nM.
Turning to `Nc1cc(N2CC[C@@H](O)C2)c2sc(-c3ccn[nH]3)cc2n1` [Compound 181], the half-maximal effective concentration (EC50) at hNLRP3 inflammasome is 0.009 µM; at hTLR7 it was > 100000 nM.
The matching figures for `Nc1cc(N[C@H]2C[C@H]2CO)c2sc(-c3ccn[nH]3)cc2n1` [Compound 182s]: 0.11 µM and > 100000 nM.
